Test results as given in patent US9073880B2, “2-(2-phenylethenyl) 1,3-benzodiazepine derivatives useful for the treatment of cancer” (Yissum Research Development Company of the Hebrew …, priority 2010, dated 2015).
pIC50: −log10 of the molar value.

Legend:
[1] = tested on: Human ovary cancer A2780 cells; assay: Cell proliferation, A2780 (Example 2); type: cell-based; conditions: 72 hours, 0.1% DMSO, methylene blue
Method: (§1) Human ovary cancer A2780 cells lines were seeded at a density of 5000 cells/well, human melanoma A375 cells were plated at a density of 2,500 cells/well, human colon carcinoma HCT15 cells were plated at a density of 3,000 cells/well, human prostate carcinoma PC3 cells were plated at a density of 1,500 cells/well, human breast carcinoma MCF7 cells were plated at a density of 5,000 cells/well, human breast carcinoma MDA MB 468 cells were plated at a density of 6,000 cells/well, human myeloma U266, RPMI8226 and CAG cells were plated at a density of 10,000 cells/well. All cells were plated in 96-well plates in 90 μl growth medium containing 10% FCS, 100 units/ml penicillin and 100 μg/ml streptomycin. Compound 3 was added a day later in […] of 1% DMSO in DDW to obtain final concentrations of 0, 0.1, 0.3, 1, 3, and 10 μM. The final concentration of DMSO (0.1% DMSO) was kept constant in all samples. […] The optical density values were read at 630 nm in ELISA plate reader. Non-adhered cells were exposed to WST-1 reagent for 5 hours following 72 hours treatment with the inhibitors, and optical density values were read at 630 nm in ELISA plate reader. The data was analyzed in Microsoft Excel, using the vehicle control as 100% proliferation. […]

human myeloma U266 cells = assay: Cell proliferation, U266 (Example 2); type: cell-based; conditions: U-266, U266, multiple myeloma, 72 hours, 0.1% DMSO, WST-1
Method: as §1

[2] = tested on: human prostate carcinoma PC3 cells; assay: Cell proliferation, PC3 (Example 4); type: cell-based; conditions: PC-3, PC3, prostate cancer, compound in 2-hydroxypropyl-β-cyclodextrin
Method: as §1

PKB = assay: IGF1-induced PKB activation in MCF7 cells (western blot); type: cell-based, human; conditions: 10 μM, 48 hr, 50 ng/ml IGF-1 5 minutes, FIG. 3
Method: Tyrosine autophosphorylation of the β-subunit of IGF-1R as well as downstream signaling induced by IGF-1R were assayed in human breast cancer MCF7 cells and in melanoma A375 cells. Cells were seeded in 6-well plates (250,000 A375 cells/well and 300,000 MCF7 cells/well) and 24 hours later medium was replaced by serum-free medium (RPMI supplemented with 100 units/ml penicillin and 100 μg/ml streptomycin). MCF7 cells were exposed for 48 hr to compound 3 at 10 μM concentration, and then stimulated for 5 minutes with 50 ng/ml IGF-1, washed twice with PBS and lysed by boiling sample buffer (10% glycerol, 50 mM Tris-HCl, pH 6.8, 3% SDS, and 5% (3-mercaptoethanol). Equal amounts of protein per lane were separated by 8% SDS-PAGE and transferred to a nitrocellulose membrane (Sartorius AG). Phosphorylated proteins were immunoblotted with anti-phosphoIGF-1R (pIGF-1R), anti-phosphotyrosine-IRS1 (pY-IRS I) and anti-phospho(T308)Akt (pPKB) antibodies. Detection was performed with horseradish peroxidase-conjugated secondary antibody using the ECL system. Blots were then stripped of antibodies, blocked with TBST with 5% low fat milk and re-probed with antibodies detecting both the phosphorylated and the non-phosphorylated corresponding proteins e.g. IGF-1Rβ, IRS1 and PKB.

Molecule `O=c1c(O)cc2cnc(/C=C/c3cc(O)c(O)c(Br)c3)sc-2c1O` [Compound 3] has a pIC50 [1] of 6.52, a pIC50 (human myeloma U266 cells) of 6.15 and a pIC50 [2] of 6.15. The “IGF1-induced activation of the downstream signaling component PKB” value (PKB) was “significantly inhibited”.
